Measured values reported in patent US20260356819A1, “OXOISOINDOLINYL-SUBSTITUTED […] DERIVATIVE AND USE THEREOF” (GLUETACS THERAPEUTICS (SHANGHAI) CO., LTD., priority 2023, published 2026).

Experiments:
Type in all cases: cell-based
Conditions in all cases: compounds at 50 nM and 500 nM
[1] = molecular target: T1, WEE1 (Homo sapiens, UniProt P30291+Q96SW2); assay: Western blot degradation of WEE1 in hPBMCs (24 h)
T1 construct: The supernatant was aspirated as the extracted total cell protein; endogenous in cells; host or cells: human peripheral blood mononuclear cells (hPBMCs)
Experimental: Conventional Western blot assay was performed to evaluate the effects of the compounds of the present disclosure on the expression of target proteins in cells. • (1) Cell Seeding and Protein Harvesting: Human peripheral blood mononuclear cells (hPBMCs) at a density of 1×10^6 cells/mL were thawed according to the PBMC Recovery Protocol (Milecell Biotechnologies Inc, Shanghai). The cells were then treated with the compounds of the present disclosure (including the compounds listed in Table 1, and the Examples 1-498 compounds) at concentrations of 50 nM and 500 nM. Controls included a negative control (DMSO) and a positive control (the commercial immunomodulatory drug lenalidomide), both processed following the identical experimental protocol as the compounds of the present disclosure. After 24 hours of compounds treatment, cells were harvested and lysed in RIPA protein lysate containing protease inhibitors on ice for 30 min, followed by centrifugation. The supernatant was aspirated as the extracted total cell protein. The protein concentration of the supernatant was determined using the conventional BCA (Bicinchoninic Acid) assay. • (2) To the collected supernatant, 5×SDS sample loading buffer was added, followed by denaturation at 95 °C for 5 minutes. The denatured samples were then separated by SDS-PAGE electrophoresis on a polyacrylamide gel. Proteins were transferred to a nitrocellulose membrane (0.45 μm NC membrane), blocked with blocking buffer at room temperature for 1 hour, and subjected to antibody incubation and development procedures according to the antibody manufacturer's instructions (Cell Signaling Technology).
Half-Maximal Degradation Concentration value (the drug concentration required for degrading proteins by 50%, abbreviated as DC50) reads method: comparing the grayscale values of Western blot bands from drug-treated samples with those from blank DMSO-treated controls, and identifying the drug concentration range at which the grayscale value is half that of the DMSO-treated control bands.
DC50 values can be calculated using ImageJ software to measure grayscale values of Western blot bands from drug-treated samples. The concentration-response curve is fitted to estimate the drug concentration corresponding to half the grayscale value.
Target protein remaining (%) refers to the percentage of target protein remaining in cells after treatment with protein degrader compounds.
Calculation method for target protein remaining (%): Use ImageJ software to measure grayscale values of Western blot bands from drug (protein degrader)-treated samples. The grayscale value of drug-treated bands is divided by that of internal control protein bands, and the resulting quotient is normalized to obtain the relative percentage of remaining target protein after protein degrader treatment.
Target protein degradation rate (%)=1−target protein remaining (%).

[2] = molecular target: T2, IKZF1 (Homo sapiens, UniProt Q13422+Q96SW2); assay: Western blot degradation of IKZF1 in hPBMCs (24 h)
T2 construct: The supernatant was aspirated as the extracted total cell protein; endogenous in cells; host or cells: human peripheral blood mononuclear cells (hPBMCs)
How it was run: (§1)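 hPBMCs (1×10^6 cells/mL) were treated with compound at 50 nM and 500 nM for 24 h, lysed in RIPA with protease inhibitors and analysed by SDS-PAGE/Western blot. Band grayscale, normalised to internal control, gave protein remaining (%); DC50 estimated versus DMSO bands.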

[3] = molecular target: T3, IKZF2 (Homo sapiens, UniProt Q96SW2+Q9UKS7); assay: Western blot degradation of IKZF2 in hPBMCs (24 h)
T3 construct: The supernatant was aspirated as the extracted total cell protein; endogenous in cells; host or cells: human peripheral blood mononuclear cells (hPBMCs)
How it was run: as §1

[4] = molecular target: T4, IKZF3 (Homo sapiens, UniProt Q96SW2+Q9UKT9); assay: Western blot degradation of IKZF3 in hPBMCs (24 h)
T4 construct: The supernatant was aspirated as the extracted total cell protein; endogenous in cells; host or cells: human peripheral blood mononuclear cells (hPBMCs)
How it was run: as §1

[5] = molecular target: T5, CK1α (Homo sapiens, UniProt P48729+Q96SW2); assay: Western blot degradation of CK1α in hPBMCs (24 h)
T5 construct: The supernatant was aspirated as the extracted total cell protein; endogenous in cells; host or cells: human peripheral blood mononuclear cells (hPBMCs)
How it was run: as §1

[6] = molecular target: T6, GSPT1 (Homo sapiens, UniProt P15170+Q96SW2); assay: Western blot degradation of GSPT1 in hPBMCs (24 h)
T6 construct: The supernatant was aspirated as the extracted total cell protein; endogenous in cells; host or cells: human peripheral blood mononuclear cells (hPBMCs)
How it was run: as §1

T4 sequence (Q9UKT9 whole entry): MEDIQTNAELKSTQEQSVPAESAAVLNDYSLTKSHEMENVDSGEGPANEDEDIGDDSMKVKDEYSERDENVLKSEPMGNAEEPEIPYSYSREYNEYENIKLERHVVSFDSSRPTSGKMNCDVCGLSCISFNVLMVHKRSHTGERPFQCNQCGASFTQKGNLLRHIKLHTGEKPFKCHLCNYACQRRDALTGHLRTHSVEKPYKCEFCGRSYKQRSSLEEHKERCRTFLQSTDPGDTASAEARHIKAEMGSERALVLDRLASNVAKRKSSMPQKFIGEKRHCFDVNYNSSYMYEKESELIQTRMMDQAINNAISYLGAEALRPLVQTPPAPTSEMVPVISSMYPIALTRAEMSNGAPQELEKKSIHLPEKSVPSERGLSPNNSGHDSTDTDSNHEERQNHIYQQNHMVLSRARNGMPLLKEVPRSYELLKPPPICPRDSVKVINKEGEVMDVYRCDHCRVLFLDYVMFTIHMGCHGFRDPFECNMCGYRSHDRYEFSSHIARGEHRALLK
T4 sequence (Q96SW2 whole entry): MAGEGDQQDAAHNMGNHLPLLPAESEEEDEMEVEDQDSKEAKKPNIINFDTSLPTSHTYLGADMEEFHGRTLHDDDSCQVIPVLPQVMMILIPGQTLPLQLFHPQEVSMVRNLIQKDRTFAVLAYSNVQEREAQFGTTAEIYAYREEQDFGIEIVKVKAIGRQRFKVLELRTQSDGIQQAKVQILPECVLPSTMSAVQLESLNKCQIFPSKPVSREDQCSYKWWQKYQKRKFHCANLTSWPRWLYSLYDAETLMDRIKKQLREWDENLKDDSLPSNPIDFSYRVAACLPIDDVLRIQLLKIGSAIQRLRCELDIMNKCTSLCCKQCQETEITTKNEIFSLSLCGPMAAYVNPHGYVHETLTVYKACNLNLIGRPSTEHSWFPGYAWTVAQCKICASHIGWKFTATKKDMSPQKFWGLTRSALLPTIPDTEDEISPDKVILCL
T4 sequence (Q16531 whole entry partner): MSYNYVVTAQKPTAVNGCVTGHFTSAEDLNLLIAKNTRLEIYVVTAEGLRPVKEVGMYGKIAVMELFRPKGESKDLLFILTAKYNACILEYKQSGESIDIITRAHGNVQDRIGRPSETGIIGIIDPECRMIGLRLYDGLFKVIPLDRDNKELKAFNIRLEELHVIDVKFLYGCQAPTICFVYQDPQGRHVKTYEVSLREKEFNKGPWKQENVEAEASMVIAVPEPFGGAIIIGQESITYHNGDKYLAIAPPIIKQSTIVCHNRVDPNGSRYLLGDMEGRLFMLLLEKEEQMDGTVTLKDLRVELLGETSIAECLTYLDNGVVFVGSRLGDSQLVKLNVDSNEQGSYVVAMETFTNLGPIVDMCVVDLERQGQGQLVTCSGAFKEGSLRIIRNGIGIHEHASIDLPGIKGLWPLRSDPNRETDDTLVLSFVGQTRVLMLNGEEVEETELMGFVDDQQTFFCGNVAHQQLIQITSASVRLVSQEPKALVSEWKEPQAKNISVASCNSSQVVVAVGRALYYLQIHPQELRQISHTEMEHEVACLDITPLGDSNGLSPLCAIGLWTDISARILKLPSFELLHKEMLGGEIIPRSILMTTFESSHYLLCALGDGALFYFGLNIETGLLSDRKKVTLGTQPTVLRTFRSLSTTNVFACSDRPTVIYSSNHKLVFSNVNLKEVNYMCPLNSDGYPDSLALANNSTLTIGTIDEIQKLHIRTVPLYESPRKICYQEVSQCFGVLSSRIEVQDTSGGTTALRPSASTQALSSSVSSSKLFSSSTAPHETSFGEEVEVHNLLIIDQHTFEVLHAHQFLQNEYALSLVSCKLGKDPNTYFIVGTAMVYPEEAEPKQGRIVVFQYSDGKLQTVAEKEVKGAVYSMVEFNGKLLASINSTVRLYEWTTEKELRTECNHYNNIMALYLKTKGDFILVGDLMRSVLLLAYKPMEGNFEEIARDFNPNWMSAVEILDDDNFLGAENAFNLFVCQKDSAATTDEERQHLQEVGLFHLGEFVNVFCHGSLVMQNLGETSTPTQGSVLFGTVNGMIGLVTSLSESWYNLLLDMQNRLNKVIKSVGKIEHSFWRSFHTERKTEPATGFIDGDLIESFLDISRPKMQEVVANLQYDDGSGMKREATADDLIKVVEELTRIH
T2 sequence (Q13422 whole entry): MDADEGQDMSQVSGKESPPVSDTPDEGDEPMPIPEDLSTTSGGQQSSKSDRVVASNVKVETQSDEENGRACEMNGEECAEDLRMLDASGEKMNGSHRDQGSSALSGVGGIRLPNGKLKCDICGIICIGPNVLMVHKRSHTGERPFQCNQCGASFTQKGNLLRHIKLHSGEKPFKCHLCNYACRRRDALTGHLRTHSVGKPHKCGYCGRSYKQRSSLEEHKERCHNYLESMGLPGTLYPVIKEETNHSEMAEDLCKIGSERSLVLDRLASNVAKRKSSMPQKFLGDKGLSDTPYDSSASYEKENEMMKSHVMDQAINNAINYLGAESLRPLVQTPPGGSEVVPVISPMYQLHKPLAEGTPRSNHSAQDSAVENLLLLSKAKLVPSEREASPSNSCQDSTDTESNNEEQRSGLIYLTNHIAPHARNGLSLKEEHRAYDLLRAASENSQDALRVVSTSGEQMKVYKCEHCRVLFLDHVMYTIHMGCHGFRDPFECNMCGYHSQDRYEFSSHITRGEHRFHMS
T2 sequence (Q96SW2 whole entry): as the sequence (Q96SW2 whole entry) above
T2 sequence (Q16531 whole entry partner): as the sequence (Q16531 whole entry partner) above
T1 sequence (P30291 whole entry): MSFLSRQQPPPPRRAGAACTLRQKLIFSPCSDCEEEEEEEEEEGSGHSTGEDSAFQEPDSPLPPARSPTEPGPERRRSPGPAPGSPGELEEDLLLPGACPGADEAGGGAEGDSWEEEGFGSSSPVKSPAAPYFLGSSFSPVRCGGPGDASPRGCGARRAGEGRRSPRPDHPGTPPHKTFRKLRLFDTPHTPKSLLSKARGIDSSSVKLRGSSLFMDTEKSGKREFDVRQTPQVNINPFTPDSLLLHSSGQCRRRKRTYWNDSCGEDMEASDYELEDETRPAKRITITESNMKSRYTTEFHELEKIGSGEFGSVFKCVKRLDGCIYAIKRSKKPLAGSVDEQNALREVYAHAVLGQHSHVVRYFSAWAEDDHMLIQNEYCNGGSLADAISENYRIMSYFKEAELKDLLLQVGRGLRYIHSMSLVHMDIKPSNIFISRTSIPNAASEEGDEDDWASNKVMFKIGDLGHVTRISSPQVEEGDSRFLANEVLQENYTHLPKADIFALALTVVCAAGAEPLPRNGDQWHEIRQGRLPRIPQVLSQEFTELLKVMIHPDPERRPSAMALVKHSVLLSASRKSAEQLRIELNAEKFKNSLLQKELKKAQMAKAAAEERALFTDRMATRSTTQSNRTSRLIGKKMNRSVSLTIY
T1 sequence (Q96SW2 whole entry): as the sequence (Q96SW2 whole entry) above
T1 sequence (Q16531 whole entry partner): as the sequence (Q16531 whole entry partner) above
T5 sequence (P48729 whole entry): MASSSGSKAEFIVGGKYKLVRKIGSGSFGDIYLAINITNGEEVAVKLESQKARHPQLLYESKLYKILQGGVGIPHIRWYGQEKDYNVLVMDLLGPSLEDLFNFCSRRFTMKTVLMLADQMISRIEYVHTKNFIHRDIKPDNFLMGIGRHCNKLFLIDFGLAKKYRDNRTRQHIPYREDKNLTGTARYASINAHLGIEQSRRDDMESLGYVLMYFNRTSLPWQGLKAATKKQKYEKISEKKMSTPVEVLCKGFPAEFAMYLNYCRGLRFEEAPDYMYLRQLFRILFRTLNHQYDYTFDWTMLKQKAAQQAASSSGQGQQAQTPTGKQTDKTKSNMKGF
T5 sequence (Q96SW2 whole entry): as the sequence (Q96SW2 whole entry) above
T5 sequence (Q16531 whole entry partner): as the sequence (Q16531 whole entry partner) above
T3 sequence (Q9UKS7 whole entry): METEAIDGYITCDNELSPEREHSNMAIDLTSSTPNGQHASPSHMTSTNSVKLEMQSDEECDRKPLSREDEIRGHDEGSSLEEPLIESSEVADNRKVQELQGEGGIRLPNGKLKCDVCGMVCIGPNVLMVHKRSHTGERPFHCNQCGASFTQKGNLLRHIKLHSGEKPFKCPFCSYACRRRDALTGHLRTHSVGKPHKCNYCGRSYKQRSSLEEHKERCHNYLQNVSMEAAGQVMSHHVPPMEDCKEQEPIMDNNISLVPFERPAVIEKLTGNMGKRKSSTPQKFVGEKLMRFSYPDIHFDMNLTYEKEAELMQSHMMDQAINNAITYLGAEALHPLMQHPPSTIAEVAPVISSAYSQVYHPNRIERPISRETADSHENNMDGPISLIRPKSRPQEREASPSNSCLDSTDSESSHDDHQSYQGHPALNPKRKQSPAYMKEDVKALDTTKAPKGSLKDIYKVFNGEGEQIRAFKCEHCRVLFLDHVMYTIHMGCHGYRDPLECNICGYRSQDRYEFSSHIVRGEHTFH
T3 sequence (Q96SW2 whole entry): as the sequence (Q96SW2 whole entry) above
T3 sequence (Q16531 whole entry partner): as the sequence (Q16531 whole entry partner) above

Row | SMILES | WEE1 substrate protein remaining % [1] | IKZF1 substrate protein remaining % [2] | IKZF2 substrate protein remaining % [3] | IKZF3 substrate protein remaining % [4] | CK1α substrate protein remaining % [5] | GSPT1 substrate protein remaining % [6]
1 | O=C1CCN(N2Cc3cc(CN4C5CC4CN(c4cccc(Cl)c4Cl)C5)ccc3C2=O)C(=O)N1 [GT-05162, 1-(5-((3-(2,3-dichlorophenyl)-3,6-diazabicyclo[3.1.1]heptan-6-yl)methyl)-1-oxoisoindolin-2-yl)dihydropyrimidine-2,4(1H,3H)-dione] | B (80%< substrate protein remaining % ≤100%) | B (80%< substrate protein remaining % ≤100%) | B (80%< substrate protein remaining % ≤100%) | A (0% ≤ substrate protein remaining % ≤80%) | B (80%< substrate protein remaining % ≤100%) | A (0% ≤ substrate protein remaining % ≤80%)
2 | O=C1CCN(N2C(=O)c3ccc(CN4CCC(N(c5ccccc5)c5ccccc5)CC4)cc3C2=O)C(=O)N1 [GT-05177, 2-(2,4-dioxotetrahydropyrimidin-1(2H)-yl)-5-((4-(diphenylamino)piperidin-1-yl)methyl)isoindoline-1,3-dione] | B (80%< substrate protein remaining % ≤100%) | B (80%< substrate protein remaining % ≤100%) | B (80%< substrate protein remaining % ≤100%) | B (80%< substrate protein remaining % ≤100%) | B (80%< substrate protein remaining % ≤100%) | A (0% ≤ substrate protein remaining % ≤80%)
3 | O=C1CCN(N2C(=O)c3ccc(CN4CCC(Nc5ccccc5-c5ccc(Cl)cc5)CC4)cc3C2=O)C(=O)N1 [GT-05179, 5-((4-((4′-chloro-[1,1′-biphenyl]-2-yl)amino)piperidin-1-yl)methyl)-2-(2,4-dioxotetrahydropyrimidin-1(2H)-yl)isoindoline-1,3-dione] | A (0% ≤ substrate protein remaining % ≤80%) | B (80%< substrate protein remaining % ≤100%) | B (80%< substrate protein remaining % ≤100%) | B (80%< substrate protein remaining % ≤100%) | B (80%< substrate protein remaining % ≤100%) | B (80%< substrate protein remaining % ≤100%)
4 | CC1(C)CCC(CN2CCN(Cc3ccc4c(c3)C(=O)N(N3CCC(=O)NC3=O)C4=O)CC2)=C(c2ccc(Cl)cc2)C1 [GT-05180, 5-((4-((4′-chloro-5,5-dimethyl-3,4,5,6-tetrahydro-[1,1′-biphenyl]-2-yl)methyl)piperazin-1-yl)methyl)-2-(2,4-dioxotetrahydropyrimidin-1(2H)-yl)isoindoline-1,3-dione] | A (0% ≤ substrate protein remaining % ≤80%) | B (80%< substrate protein remaining % ≤100%) | B (80%< substrate protein remaining % ≤100%) | B (80%< substrate protein remaining % ≤100%) | B (80%< substrate protein remaining % ≤100%) | B (80%< substrate protein remaining % ≤100%)
5 | O=C1CCN(N2C(=O)c3ccc(CN4CC=C(c5c[nH]c6ncccc56)CC4)cc3C2=O)C(=O)N1 [GT-05181, 5-((4-(1H-pyrrolo[2,3-b]pyridin-3-yl)-3,6-dihydropyridin-1(2H)-yl)methyl)-2-(2,4-dioxotetrahydropyrimidin-1(2H)-yl)isoindoline-1,3-dione] | A (0% ≤ substrate protein remaining % ≤80%) | B (80%< substrate protein remaining % ≤100%) | B (80%< substrate protein remaining % ≤100%) | B (80%< substrate protein remaining % ≤100%) | B (80%< substrate protein remaining % ≤100%) | B (80%< substrate protein remaining % ≤100%)
6 | O=C1CCN(N2C(=O)c3ccc(CN4CC=C(c5cccc(Cl)c5Cl)CC4)cc3C2=O)C(=O)N1 [GT-05249, 5-((4-(2,3-dichlorophenyl)-3,6-dihydropyridin-1(2H)-yl)methyl)-2-(2,4-dioxotetrahydropyrimidin-1(2H)-yl)isoindoline-1,3-dione] | B (80%< substrate protein remaining % ≤100%) | A (0% ≤ substrate protein remaining % ≤80%) | B (80%< substrate protein remaining % ≤100%) | B (80%< substrate protein remaining % ≤100%) | B (80%< substrate protein remaining % ≤100%) | A (0% ≤ substrate protein remaining % ≤80%)
7 | O=C1CCN(N2C(=O)c3ccc(CN4CCC(c5cccc(Cl)c5Cl)CC4)cc3C2=O)C(=O)N1 [GT-05250, 5-((4-(2,3-dichlorophenyl)piperidin-1-yl)methyl)-2-(2,4-dioxotetrahydropyrimidin-1(2H)-yl)isoindoline-1,3-dione] | B (80%< substrate protein remaining % ≤100%) | B (80%< substrate protein remaining % ≤100%) | A (0% ≤ substrate protein remaining % ≤80%) | B (80%< substrate protein remaining % ≤100%) | B (80%< substrate protein remaining % ≤100%) | B (80%< substrate protein remaining % ≤100%)
8 | O=C1CCN(N2C(=O)c3ccc(CN4C5CC4CN(c4cccc(Cl)c4Cl)C5)cc3C2=O)C(=O)N1 [GT-05251, 5-((3-(2,3-dichlorophenyl)-3,6-diazabicyclo[3.1.1]heptan-6-yl)methyl)-2-(2,4-dioxotetrahydropyrimidin-1(2H)-yl)isoindoline-1,3-dione] | B (80%< substrate protein remaining % ≤100%) | B (80%< substrate protein remaining % ≤100%) | A (0% ≤ substrate protein remaining % ≤80%) | B (80%< substrate protein remaining % ≤100%) | B (80%< substrate protein remaining % ≤100%) | B (80%< substrate protein remaining % ≤100%)
9 | O=C1CCN(N2C(=O)c3ccc(CN4CCn5c(nnc5C(F)(F)F)C4)cc3C2=O)C(=O)N1 [GT-05253, 2-(2,4-dioxotetrahydropyrimidin-1(2H)-yl)-5-((3-(trifluoromethyl)-5,6-dihydro-[1,2,4]triazolo[4,3-a]pyrazin-7 (8H)-yl)methyl)isoindoline-1,3-dione] | B (80%< substrate protein remaining % ≤100%) | B (80%< substrate protein remaining % ≤100%) | B (80%< substrate protein remaining % ≤100%) | B (80%< substrate protein remaining % ≤100%) | B (80%< substrate protein remaining % ≤100%) | A (0% ≤ substrate protein remaining % ≤80%)
10 | O=C1CCN(N2C(=O)c3ccc(CN4CCc5sccc5C4)cc3C2=O)C(=O)N1 [GT-05254, 5-((6,7-dihydrothieno[3,2-c]pyridin-5 (4H)-yl)methyl)-2-(2,4-dioxotetrahydropyrimidin-1(2H)-yl)isoindoline-1,3-dione] | B (80%< substrate protein remaining % ≤100%) | B (80%< substrate protein remaining % ≤100%) | B (80%< substrate protein remaining % ≤100%) | B (80%< substrate protein remaining % ≤100%) | B (80%< substrate protein remaining % ≤100%) | A (0% ≤ substrate protein remaining % ≤80%)
